Article PMC10914731, “Homo-BacPROTAC-induced degradation of ClpC1 as a strategy against drug-resistant mycobacteria” (Nature Communications, 2024)
Converted amounts (≈) assume the structure as drawn. “And” between values parts separate entries of the source, which are not always exact repeats. Equal entries are not always repeated. Where two headings read alike, the source gives them in different places.

Assays:
[1] = target: ClpC1 NTD protein (M. tuberculosis) (Mycobacterium tuberculosis, UniProt P9WPC9); test: biochemical; type: binding
Sequence of ClpC1 NTD protein (M. tuberculosis) (P9WPC9 1-156, looked up, natural form): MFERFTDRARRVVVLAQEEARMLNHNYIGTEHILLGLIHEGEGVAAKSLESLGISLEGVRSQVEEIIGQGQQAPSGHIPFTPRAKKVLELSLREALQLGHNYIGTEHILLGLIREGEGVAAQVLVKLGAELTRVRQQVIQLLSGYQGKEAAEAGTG

Caco-2 monolayers = test: in vitro
Summary of the method: (§1)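 Values are bidirectional Caco-2 apparent permeabilities, P(A−B) and P(B−A), given in 10^-6 cm s-1. The efflux ratio divides P(B−A) by P(A−B), and intrinsic permeability averages the two directions.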

[2] = Microsomal stability, human; type: in vitro ADME
Method: (§2) The kinetics of compound degradation in liver microsomes is assessed in an assay with 1 µmol/l of compound and 0.5 mg/ml liver microsomes in a medium of 100 mM Tris-HCl pH 7.5, 6.5 mM MgCl2 and 1 mM NADPH at 37 °C. The reaction is stopped at multiple time points by adding acetonitrile. After centrifugation, the compound concentration is measured in the supernatants by high-performance liquid chromatography (HPLC) tandem mass spectrometry (MS/MS). The results are fitted to a first-order decay and the half-lives are converted to clearance (stated as % of the liver blood flow (%Qh)) using the well-stirred liver model.

[3] = Hepatocyte stability, mice; type: in vitro ADME
Summary of the method: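 Parent depletion by HPLC-MS/MS in mouse hepatocyte suspension (50% serum, ~1 million cells/mL) with 1 µM compound over up to 6 h at 37 °C. Half-lives were scaled to % Qh using the well-stirred liver model.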

[4] = type: in vitro ADME, Rat
[5] = type: in vitro ADME, Human
[6] = tested on: M. tuberculosis H37Rv (ATCC 27294); test: microbe, parasite or virus in culture; type: cell-based
Msm 607 = test: microbe, parasite or virus in culture; type: cell-based
Msm 700084 = test: microbe, parasite or virus in culture; type: cell-based
[7] = target: His6-tagged ClpC1-NTD substrate, M. smegmatis ClpC1P1P2 (UniProt A0R574+P9WPC9); test: biochemical; type: biochemical
Sequence of His6-tagged ClpC1-NTD substrate, M. smegmatis ClpC1P1P2 (P9WPC9 1-156, looked up, natural form): as above
Sequence of His6-tagged ClpC1-NTD substrate, M. smegmatis ClpC1P1P2 (A0R574 whole entry): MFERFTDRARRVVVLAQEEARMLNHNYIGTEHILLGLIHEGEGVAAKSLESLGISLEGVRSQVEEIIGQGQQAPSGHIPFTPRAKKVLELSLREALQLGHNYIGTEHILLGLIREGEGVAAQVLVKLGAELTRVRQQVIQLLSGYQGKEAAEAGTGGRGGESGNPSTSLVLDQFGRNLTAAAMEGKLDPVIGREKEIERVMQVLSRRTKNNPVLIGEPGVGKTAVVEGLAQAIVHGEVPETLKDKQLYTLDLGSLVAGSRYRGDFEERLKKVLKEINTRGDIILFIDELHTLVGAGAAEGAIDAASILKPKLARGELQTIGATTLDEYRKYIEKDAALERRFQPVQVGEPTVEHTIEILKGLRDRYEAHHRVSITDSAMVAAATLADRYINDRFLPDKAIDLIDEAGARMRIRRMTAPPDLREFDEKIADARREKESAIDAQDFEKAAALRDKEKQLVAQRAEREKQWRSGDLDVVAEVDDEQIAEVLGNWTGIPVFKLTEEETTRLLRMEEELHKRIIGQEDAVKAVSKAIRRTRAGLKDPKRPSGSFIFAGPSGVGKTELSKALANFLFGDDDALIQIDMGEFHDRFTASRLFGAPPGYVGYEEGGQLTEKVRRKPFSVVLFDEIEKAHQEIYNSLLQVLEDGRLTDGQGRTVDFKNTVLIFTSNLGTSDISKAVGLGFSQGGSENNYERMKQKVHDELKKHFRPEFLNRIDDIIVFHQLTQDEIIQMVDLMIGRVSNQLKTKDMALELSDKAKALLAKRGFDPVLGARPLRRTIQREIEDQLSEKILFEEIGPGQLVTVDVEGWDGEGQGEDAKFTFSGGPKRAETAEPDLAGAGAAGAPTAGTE

[8] = target: ClpC1-NTD substrate, M. tuberculosis ClpC1P1P2 (Mycobacterium tuberculosis, UniProt P9WPC9); test: biochemical; type: biochemical
Sequence of ClpC1-NTD substrate, M. tuberculosis ClpC1P1P2 (P9WPC5 whole entry): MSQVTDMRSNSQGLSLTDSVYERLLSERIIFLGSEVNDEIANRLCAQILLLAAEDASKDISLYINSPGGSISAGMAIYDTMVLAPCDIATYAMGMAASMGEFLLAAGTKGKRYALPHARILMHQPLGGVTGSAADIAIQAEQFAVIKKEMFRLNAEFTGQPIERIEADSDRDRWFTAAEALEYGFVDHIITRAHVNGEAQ
Sequence of ClpC1-NTD substrate, M. tuberculosis ClpC1P1P2 (P9WPC9 whole entry): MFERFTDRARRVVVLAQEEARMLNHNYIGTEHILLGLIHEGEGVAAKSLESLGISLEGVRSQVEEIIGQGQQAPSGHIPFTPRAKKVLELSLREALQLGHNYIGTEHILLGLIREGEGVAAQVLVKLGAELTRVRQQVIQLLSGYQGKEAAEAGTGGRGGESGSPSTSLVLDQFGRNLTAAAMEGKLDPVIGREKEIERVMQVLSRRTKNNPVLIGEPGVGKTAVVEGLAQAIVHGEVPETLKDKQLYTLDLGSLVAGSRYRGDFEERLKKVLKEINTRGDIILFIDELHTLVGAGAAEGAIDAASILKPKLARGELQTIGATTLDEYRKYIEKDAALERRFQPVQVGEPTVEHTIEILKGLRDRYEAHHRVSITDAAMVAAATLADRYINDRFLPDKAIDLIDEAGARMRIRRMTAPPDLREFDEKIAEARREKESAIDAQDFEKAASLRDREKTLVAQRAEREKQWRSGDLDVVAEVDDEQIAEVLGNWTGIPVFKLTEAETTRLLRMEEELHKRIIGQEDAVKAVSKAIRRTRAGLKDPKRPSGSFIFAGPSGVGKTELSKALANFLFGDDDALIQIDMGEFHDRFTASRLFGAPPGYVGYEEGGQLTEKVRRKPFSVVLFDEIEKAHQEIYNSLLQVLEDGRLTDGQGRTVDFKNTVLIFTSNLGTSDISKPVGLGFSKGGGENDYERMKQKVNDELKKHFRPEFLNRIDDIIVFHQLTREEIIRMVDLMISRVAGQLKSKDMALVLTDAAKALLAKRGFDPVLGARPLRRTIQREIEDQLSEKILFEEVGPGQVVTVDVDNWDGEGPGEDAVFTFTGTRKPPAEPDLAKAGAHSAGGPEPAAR
Sequence of ClpC1-NTD substrate, M. tuberculosis ClpC1P1P2 (P9WPC3 whole entry, further chain): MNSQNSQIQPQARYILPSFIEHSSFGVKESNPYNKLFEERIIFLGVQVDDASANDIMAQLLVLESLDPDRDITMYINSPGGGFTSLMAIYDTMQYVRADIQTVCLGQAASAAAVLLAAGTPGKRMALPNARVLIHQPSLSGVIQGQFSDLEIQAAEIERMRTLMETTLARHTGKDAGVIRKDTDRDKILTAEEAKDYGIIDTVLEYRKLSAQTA

[9] = type: in vitro ADME, Mice
Method: as §2

[10] = type: in vitro ADME, Rat; remark: listed apart in the source
Method: as §2

in vitro = conditions: human
Summary of the method: as §1

[11] = read-out: DC50, single measurements
[12] = Mycobacterium tuberculosis, Mtb H37Rv (Supplementary Table 2), read-out: MIC Mtb
[13] = Mycolicibacterium smegmatis, 607, read-out: MIC Msm 607
[14] = Mycolicibacterium smegmatis, 700084, single determinations, read-out: Msm 700084 MIC
[15] = Mycolicibacterium smegmatis, 700084, read-out: MIC Msm 700084

Structure (SMILES): COC(c1ccc(OCc2cn(CCOCCOCCOCCOCCn3cc(COc4ccc(C(OC)C5NC(=O)C(C)NC(=O)C(CC(C)CO)N(C)C(=O)C(Cc6cn(C)c7ccccc67)NC(=O)C(C(C)C)NC(=O)C(CC(C)C)N(C)C(=O)C(C(C)C)NC5=O)cc4)nn3)nn2)cc1)C1NC(=O)C(C)NC(=O)C(CC(C)CO)N(C)C(=O)C(Cc2cn(C)c3ccccc23)NC(=O)C(C(C)C)NC(=O)C(CC(C)C)N(C)C(=O)C(C(C)C)NC1=O (stereo not shown) [SI-39]
- koff ClpC1-NTD [1]: 1E-3 7E-4 1/s
- Kd ([1]; read-out: KD ClpC1-NTD): 0.477 nM and 0.422 nM
- Kd ([1]; read-out: KD ClpC1-NTD Mean ± SD): 0.45 ± 0.04 nM
- CACO permeability PEAB (Caco-2 monolayers; Caco-2): <0.000 cm/sec
- CACO permeability PEBA (Caco-2 monolayers; Caco-2): <0.000 cm/sec
- Caco-2 Int. Perm (Caco-2 monolayers; Caco-2): 2.9 10-6 cm s-1
- Caco-2 permeability P (A-B) (Caco-2 monolayers; Caco-2): < 4.1 10-6 cm s-1
- Caco-2 permeability P (B-A) (Caco-2 monolayers; Caco-2): < 1.7 10-6 cm s-1
- Microsomal Stability Human QH [2]: 39.3%
- Hepatocyte Mice ([3]; clearance in hepatocytes): 15 %Qh
- Hepatocyte Rat [4]: 6 %Qh
- Hepatocyte Stability Rat QH [4]: 6.192%
- Hepatocyte Human [5]: 12 %Qh
- Hepatocyte Stability Human QH [5]: 12.386%
- MIC ([6]; Mtb H37Rv (Supplementary Table 2), read-out: MIC Mtb): 0.2 µM (≈ 0.446 µg/mL)
- MIC ([6]; single determinations, read-out: Mtb MIC): 0.195 µM (≈ 0.435 µg/mL)
- Msm 607 MIC (Msm 607; single determinations): 12.500 µM
- MIC (Msm 700084; single determinations, read-out: Msm 700084 MIC): 12.500 µM (≈ 27.9 µg/mL)
- 1-Dmax, Mean [7]: 88%
- 1-Dmax, single measurements [7]: 79.0% and 91.3% and 94.4%
- DC50 ([7]; read-out: DC50, Mean): 5800 nM
- DC50 [7, 11]: 6500 nM and 5300 nM and 5600 nM
- 1-Dmax, Mean [8]: 73%
- 1-Dmax, single measurements [8]: 79.7% and 65.9% and 73.8%
- DC50 ([8]; read-out: DC50, Mean): 7700 nM
- DC50 [8, 11]: 8500 nM and 5900 nM and 8700 nM

Structure (SMILES): COC(c1ccccc1)C1NC(=O)C(C)NC(=O)C(CC(C)CO)N(C)C(=O)C(Cc2cn(CC=CCn3cc(CC4NC(=O)C(C(C)C)NC(=O)C(CC(C)C)N(C)C(=O)C(C(C)C)NC(=O)C(C(OC)c5ccccc5)NC(=O)C(C)NC(=O)C(CC(C)CO)N(C)C4=O)c4ccccc43)c3ccccc23)NC(=O)C(C(C)C)NC(=O)C(CC(C)C)N(C)C(=O)C(C(C)C)NC1=O (stereo not shown) [Compound 15]
- Kd ([1]; SPR, individual measurements (source data), read-out: KD ClpC1-NTD): 1.81 nM and 0.654 nM
- Kd ([1]; SPR, read-out: ClpC1-NTD KD Mean ± SD): 1.2 ± 0.8 nM
- Caco-2 Efflux ratio (Caco-2 monolayers; human, Caco-2): 0.8
- Caco-2 Int. Perm (Caco-2 monolayers; human, Caco-2): 2.0
- Caco-2 permeability P (A-B) (Caco-2 monolayers; human, Caco-2): 2.2
- Caco-2 permeability P (B-A) (Caco-2 monolayers; human, Caco-2): 1.8
- Microsomal Stability Mouse QH ([9]; Mouse): <24.200%
- Microsomal Stability Mice ([9]; clearance in microsomes): < 24 %Qh
- Microsomal Stability Rat QH ([10]; Rat): <23.100%
- Microsomal Stability Rat ([10]; clearance in microsomes): < 23 %Qh
- Microsomal Stability Human QH [2]: <24.400%
- Microsomal Stability Human ([2]; clearance in microsomes): < 24 %Qh
- Hepatocyte Mice ([3]; mouse, pH 7.4): 15 %Qh
- Hepatocyte Stability Mouse QH ([3]; mouse, pH 7.4): 15.001%
- Hepatocyte Rat ([4]; rat, pH 7.4): 6 %Qh
- Hepatocyte Stability Rat QH ([4]; rat, pH 7.4): 6.192%
- Hepatocyte Human ([5]; human, pH 7.4): 12 %Qh
- Hepatocyte Stability Human QH ([5]; human, pH 7.4): 12.386%
- MIC ([6]; Mycobacterium tuberculosis, M. tuberculosis H37Rv strain, read-out: MIC Mtb H37Rv Mean ± SD): 0.2 ± 0.1 µM (≈ 0.372 µg/mL)
- MIC [6, 12]: 0.2 ± 0.1 µM (≈ 0.372 µg/mL)
- MIC ([6]; individual measurements (source data), read-out: Mtb MIC): 0.200 µM and 0.390 µM and 0.097 µM (2×)
- MIC (Msm 607; [13]): 2.3 ± 0.9 µM (≈ 4.27 µg/mL)
- MIC (Msm 700084; [14]): 50 µM (≈ 92.9 µg/mL)
- MIC (Msm 700084; [15]): 50 µM (≈ 92.9 µg/mL)

Structure (SMILES): CO[C@H](c1ccc(OCc2cn(CCCCCn3cc(COc4ccc([C@@H](OC)[C@@H]5NC(=O)[C@H](C)NC(=O)[C@H](C[C@@H](C)CO)N(C)C(=O)[C@H](Cc6cn(C)c7ccccc67)NC(=O)[C@H](C(C)C)NC(=O)[C@H](CC(C)C)N(C)C(=O)[C@H](C(C)C)NC5=O)cc4)nn3)nn2)cc1)[C@@H]1NC(=O)[C@H](C)NC(=O)[C@H](C[C@@H](C)CO)N(C)C(=O)[C@H](Cc2cn(C)c3ccccc23)NC(=O)[C@H](C(C)C)NC(=O)[C@H](CC(C)C)N(C)C(=O)[C@H](C(C)C)NC1=O [SI-40]
- Kd ([1]; SPR (Supplementary Table 1), read-out: KD ClpC1-NTD Mean ± SD): 0.66 ± 0.04 nM
- koff ClpC1-NTD ([1]; SPR, single independent measurements): 0.0009 s⁻¹
- Kd ([1]; SPR, single independent measurements, read-out: KD ClpC1-NTD): 0.686 nM and 0.636 nM
- koff ([1]; SPR, single independent measurements, read-out: koff ClpC1-NTD): 0.001 s⁻¹
- Papp A→B (in vitro; Caco-2, Caco-2 permeability P (A-B), apical to basolateral): < 2.5 ×10⁻⁶ cm/s
- Papp B→A (in vitro; Caco-2, Caco-2 permeability P (B-A), basolateral to apical): < 0.7 ×10⁻⁶ cm/s
- Caco-2 Int. Perm (Caco-2 monolayers; mean value of P(A−B) and P(B−A)): 1.60 10-6 cm s-1
- Hepatocyte Mice ([3]; clearance in hepatocytes): 15 %Qh
- Hepatocyte Stability Rat QH ([4]; Rat): 11.911%
- Hepatocyte Rat ([4]; clearance in hepatocytes): 12 %Qh
- Hepatocyte Stability Human QH ([5]; Human): 25.024%
- MIC [6, 12]: 0.2 µM (≈ 0.419 µg/mL)
- MIC ([6]; Mycobacterium tuberculosis, single determinations, read-out: Mtb MIC): 0.195 µM (≈ 0.409 µg/mL)
- MIC (Msm 607; [13]): > 50 µM
- MIC (Msm 607; Mycolicibacterium smegmatis, 607, read-out: Msm 607 MIC, single determinations): > 50 µM
- MIC (Msm 700084; [14]): > 50 µM
- MIC (Msm 700084; [15]): > 50 µM
